System: MV-4-11 cells
Assay: Gene expression microarray analysis (Affymetrix PrimeView) and GSEA
Type: cell-based, human
Set-up: RFU PODN (11730768_x_at) / Fold change /veh PODN (11730768_x_at) / RFU LINC00158 (11744669_a_at) / Fold change /veh LINC00158 (11744669_a_at) / RFU DUSP10 (11751237_a_at) / Fold change /veh DUSP10 (11751237_a_at) / RFU ID3 (11757404_x_at) / Fold change /veh ID3 (11757404_x_at) / RFU PLEKHG5 (11737974_s_at) / Fold change /veh PLEKHG5 (11737974_s_at) / RFU LRRC4B (11730491_at) / Fold change /veh LRRC4B (11730491_at) / RFU GIMAP4 (11747438_a_at) / Fold change /veh GIMAP4 (11747438_a_at) / RFU KRT8 (11758183_x_at) / Fold change /veh KRT8 (11758183_x_at) / RFU CNN1 (11734310_a_at) / Fold change /veh CNN1 (11734310_a_at) / RFU VPS37D (11726825_at) / Fold change /veh VPS37D (11726825_at) / RFU C10orf10 (11716522_x_at) / Fold change /veh C10orf10 (11716522_x_at) / RFU KIR2DL2 /// KIR2DL4 /// KIR2DL5A /// KIR2DL5B /// KIR2DS1 /// KIR2DS2 /// KIR2DS3 /// KIR2DS4 /// KIR3DL3 /// KIR3DL3 /// KIR3DS1 (11738374_at) / Fold change /veh KIR2DL2 /// KIR2DL4 /// KIR2DL5A /// KIR2DL5B /// KIR2DS1 /// KIR2DS2 /// KIR2DS3 /// KIR2DS4 /// KIR3DL3 /// KIR3DL3 /// KIR3DS1 (11738374_at) / RFU C1QL1 (11718748_at) / Fold change /veh C1QL1 (11718748_at) / RFU TMPRSS4 (11747572_a_at) / Fold change /veh TMPRSS4 (11747572_a_at) / RFU HAMP (11756126_x_at) / Fold change /veh HAMP (11756126_x_at) / RFU RNFT2 (11725882_a_at) / Fold change /veh RNFT2 (11725882_a_at) / RFU NR4A2 (11747474_a_at) / Fold change /veh NR4A2 (11747474_a_at) / RFU ABCC12 (11746883_a_at) / Fold change /veh ABCC12 (11746883_a_at) / RFU TMEM136 (11760407_x_at) / Fold change /veh TMEM136 (11760407_x_at) / RFU CLDN22 /// WWC2 (11732394_at) / Fold change /veh CLDN22 /// WWC2 (11732394_at) / RFU HLA-DPB1 (11760878_x_at) / Fold change /veh HLA-DPB1 (11760878_x_at) / RFU SPINT1 (11716480_a_at) / Fold change /veh SPINT1 (11716480_a_at) / RFU GAP43 (11754022_s_at) / Fold change /veh GAP43 (11754022_s_at) / RFU A4GNT (11735810_at) / Fold change /veh A4GNT (11735810_at) / RFU PRB3 (11715151_x_at) / Fold change /veh PRB3 (11715151_x_at) / RFU TUBB4B (11761932_at) / Fold change /veh TUBB4B (11761932_at) / RFU CAPN14 (11732068_a_at) / Fold change /veh CAPN14 (11732068_a_at) / RFU TMCC2 (11721928_a_at) / Fold change /veh TMCC2 (11721928_a_at) / RFU IRGQ (11745062_a_at) / Fold change /veh IRGQ (11745062_a_at) / RFU FAM174B (11720279_a_at) / Fold change /veh FAM174B (11720279_a_at) / RFU TMPRSS4 (11748680_a_at) / Fold change /veh TMPRSS4 (11748680_a_at) / RFU FAM212B (11763350_a_at) / Fold change /veh FAM212B (11763350_a_at) / RFU PLEKHG5 (11743358_a_at) / Fold change /veh PLEKHG5 (11743358_a_at) / RFU ZSCAN30 (11745921_a_at) / Fold change /veh ZSCAN30 (11745921_a_at) / RFU CMKLR1 (11741424_a_at) / Fold change /veh CMKLR1 (11741424_a_at) / RFU LOC101060620 /// MAPK8IP1 (11723275_at) / Fold change /veh LOC101060620 /// MAPK8IP1 (11723275_at) / RFU SPTSSB (11747773_x_at) / Fold change /veh SPTSSB (11747773_x_at) / RFU PRSS12 (11739890_at) / Fold change /veh PRSS12 (11739890_at) / RFU BIN1 (11741810_x_at) / Fold change /veh BIN1 (11741810_x_at) / RFU WNT11 (11732464_a_at) / Fold change /veh WNT11 (11732464_a_at) / RFU C10orf10 (11716521_a_at) / Fold change /veh C10orf10 (11716521_a_at) / RFU C5orf56 (11738089_at) / Fold change /veh C5orf56 (11738089_at) / RFU CYB561 (11721691_x_at) / Fold change /veh CYB561 (11721691_x_at) / RFU ANKRD19P (11752326_a_at) / Fold change /veh ANKRD19P (11752326_a_at) / RFU OR2T12 /// OR2T33 /// OR2T8 (11738714_s_at) / Fold change /veh OR2T12 /// OR2T33 /// OR2T8 (11738714_s_at) / RFU VCAN (11748164_a_at) / Fold change /veh VCAN (11748164_a_at) / RFU JSRP1 (11732532_at) / Fold change /veh JSRP1 (11732532_at) / RFU KRTAP10-11 (11738290_x_at) / Fold change /veh KRTAP10-11 (11738290_x_at) / RFU MYO3A (11730013_a_at) / Fold change /veh MYO3A (11730013_a_at) / RFU EBF3 (11725865_a_at) / Fold change /veh EBF3 (11725865_a_at) / RFU CAMK2N1 (11719241_x_at) / Fold change /veh CAMK2N1 (11719241_x_at) / RFU C5orf56 (11738088_a_at) / Fold change /veh C5orf56 (11738088_a_at) / RFU OLFML3 (11715873_a_at) / Fold change /veh OLFML3 (11715873_a_at) / RFU LOC100653217 /// NTM (11731650_a_at) / Fold change /veh LOC100653217 /// NTM (11731650_a_at) / RFU MAPK11 (11762145_a_at) / Fold change /veh MAPK11 (11762145_a_at) / RFU FIZ1 (11724087_x_at) / Fold change /veh FIZ1 (11724087_x_at) / RFU OASL (11726364_x_at) / Fold change /veh OASL (11726364_x_at) / RFU SOX15 (11748057_x_at) / Fold change /veh SOX15 (11748057_x_at) / RFU CD79A (11719716_a_at) / Fold change /veh CD79A (11719716_a_at) / RFU HIST1H1D (11736915_at) / Fold change /veh HIST1H1D (11736915_at) / RFU CASKIN2 (11723855_a_at) / Fold change /veh CASKIN2 (11723855_a_at) / RFU LOC730098 (11760151_x_at) / Fold change /veh LOC730098 (11760151_x_at) / RFU OR4N2 (11742367_at) / Fold change /veh OR4N2 (11742367_at) / RFU PRRT2 (11749266_a_at) / Fold change /veh PRRT2 (11749266_a_at) / RFU SNX32 (11753110_a_at) / Fold change /veh SNX32 (11753110_a_at) / RFU CDHR5 (11726645_a_at) / Fold change /veh CDHR5 (11726645_a_at) / RFU RCAN1 (11760418_a_at) / Fold change /veh RCAN1 (11760418_a_at) / RFU FAM167A (11723789_a_at) / Fold change /veh FAM167A (11723789_a_at) / RFU FAM26E (11764081_at) / Fold change /veh FAM26E (11764081_at) / RFU ISYNA1 (11749810_s_at) / Fold change /veh ISYNA1 (11749810_s_at) / RFU ACY1 (11761880_at) / Fold change /veh ACY1 (11761880_at) / RFU 11764098_at / Fold change /veh 11764098_at / RFU SAMD14 (11745864_x_at) / Fold change /veh SAMD14 (11745864_x_at) / RFU NPB (11741838_a_at) / Fold change /veh NPB (11741838_a_at) / RFU TMPRSS6 (11731388_a_at) / Fold change /veh TMPRSS6 (11731388_a_at) / RFU KRTAP10-2 (11738614_at) / Fold change /veh KRTAP10-2 (11738614_at) / RFU ARHGAP8 /// PRR5-ARHGAP8 (11727945_x_at) / Fold change /veh ARHGAP8 /// PRR5-ARHGAP8 (11727945_x_at) / RFU KRTAP5-7 /// NADSYN1 (11734609_at) / Fold change /veh KRTAP5-7 /// NADSYN1 (11734609_at) / RFU RASL12 (11751679_a_at) / Fold change /veh RASL12 (11751679_a_at) / RFU CDKN2B (11736163_a_at) / Fold change /veh CDKN2B (11736163_a_at) / RFU PRF1 (11729649_at) / Fold change /veh PRF1 (11729649_at) / RFU, ZNF638 /// ZNF638-IT1 / Fold change vs veh, ZNF638 /// ZNF638-IT1 / RFU, PANK3 / Fold change vs veh, PANK3 / RFU, SH3YL1 / Fold change vs veh, SH3YL1 / RFU, ZEB2 / Fold change vs veh, ZEB2 / RFU, NRIP1 / Fold change vs veh, NRIP1 / RFU, PTTG1IP / Fold change vs veh, PTTG1IP / RFU, CAPN2 / Fold change vs veh, CAPN2 / RFU, MED14 / Fold change vs veh, MED14 / RFU, SNORA58 / Fold change vs veh, SNORA58 / RFU, C1orf63 / Fold change vs veh, C1orf63 / RFU, LRRFIP1 / Fold change vs veh, LRRFIP1 / RFU, NDUFAF7 / Fold change vs veh, NDUFAF7 / RFU, SLC12A2 / Fold change vs veh, SLC12A2 / RFU, IBTK / Fold change vs veh, IBTK / RFU, ESF1 / Fold change vs veh, ESF1 / Fold change vs veh, TMEM50B / RFU, TAOK1 / Fold change vs veh, TAOK1 / RFU, ACBD3 / Fold change vs veh, ACBD3 / RFU, TMA16 / Fold change vs veh, TMA16 / RFU, RWDD3 / Fold change vs veh, RWDD3 / RFU, BCAT1 / Fold change vs veh, BCAT1 / RFU, EDEM3 / Fold change vs veh, EDEM3 / RFU, TMEM33 / Fold change vs veh, TMEM33 / RFU, WDR75 / Fold change vs veh, WDR75 / RFU, AHCTF1 / Fold change vs veh, AHCTF1 / RFU, TFRC / Fold change vs veh, TFRC / RFU, ZDHHC17 / Fold change vs veh, ZDHHC17 / RFU, NOM1 / Fold change vs veh, NOM1 / RFU, ARL8B / Fold change vs veh, ARL8B / RFU, ZBTB11 / Fold change vs veh, ZBTB11 / RFU, TAMM41 / Fold change vs veh, TAMM41 / RFU, KIAA1704 /// LOC100996395 / Fold change vs veh, KIAA1704 /// LOC100996395 / RFU, ING1 / Fold change vs veh, ING1 / RFU, TRMT61B / Fold change vs veh, TRMT61B / RFU, FUBP3 / Fold change vs veh, FUBP3 / RFU, TP53 / Fold change vs veh, TP53 / RFU, TNKS2 / Fold change vs veh, TNKS2 / RFU, ZFP14 / Fold change vs veh, ZFP14 / RFU, ACTR2 / Fold change vs veh, ACTR2 / RFU, PPP3R1 / Fold change vs veh, PPP3R1 / RFU, PIK3R1 / Fold change vs veh, PIK3R1 / RFU, HNRNPA1 / Fold change vs veh, HNRNPA1 / RFU, RNF170 / Fold change vs veh, RNF170 / RFU, ZNF28 / Fold change vs veh, ZNF28 / RFU, RNGTT / Fold change vs veh, RNGTT / RFU, OGT / Fold change vs veh, OGT / RFU, BRD1 / Fold change vs veh, BRD1 / RFU, MARS / Fold change vs veh, MARS / RFU, ZNF655 / Fold change vs veh, ZNF655 / RFU, FAHD1 / Fold change vs veh, FAHD1 / RFU, BDP1 / Fold change vs veh, BDP1 / RFU, LRRCC1 / Fold change vs veh, LRRCC1 / RFU, ARID1A / Fold change vs veh, ARID1A / RFU, ZNF146 / Fold change vs veh, ZNF146 / RFU, ZNF330 / Fold change vs veh, ZNF330 / RFU, GPN3 / Fold change vs veh, GPN3 / RFU, C9orf123 / Fold change vs veh, C9orf123 / RFU, N4BP2L2 / Fold change vs veh, N4BP2L2 / RFU, ARFIP1 / Fold change vs veh, ARFIP1 / RFU, FAM179B / Fold change vs veh, FAM179B / RFU, BCL10 / Fold change vs veh, BCL10 / RFU, UHRF1BP1L / Fold change vs veh, UHRF1BP1L / RFU, BET1 / Fold change vs veh, BET1 / RFU, CNOT2 / Fold change vs veh, CNOT2 / RFU, ZNF268 / Fold change vs veh, ZNF268 / Fold change vs veh, ZNF507 / RFU, DGCR2 / Fold change vs veh, DGCR2 / RFU, WDSUB1 / Fold change vs veh, WDSUB1 / Fold change vs veh, HSP90B1 /// MIR3652 / RFU, ADSS / Fold change vs veh, ADSS / RFU, GK / Fold change vs veh, GK / RFU, ZNF148 / Fold change vs veh, ZNF148 / RFU, TAF9 / Fold change vs veh, TAF9 / RFU, SLC1A5 / Fold change vs veh, SLC1A5 / RFU, SLMO2 / Fold change vs veh, SLMO2 / RFU, ABCC4 / Fold change vs veh, ABCC4 / RFU, LOC101060439 /// RAP1B / Fold change vs veh, LOC101060439 /// RAP1B / RFU, RFX7 / Fold change vs veh, RFX7 / RFU, GTPBP10 / Fold change vs veh, GTPBP10 / RFU, CNEP1R1 / Fold change vs veh, CNEP1R1 / RFU, BIVM-ERCC5 /// ERCC5 / Fold change vs veh, BIVM-ERCC5 /// ERCC5 / RFU, ILF3 / Fold change vs veh, ILF3 / RFU 11762660_at / Fold change /veh 11762660_at / RFU VCAN (11757783_s_at) / Fold change /veh VCAN (11757783_s_at) / RFU DDX43 (11728927_at) / Fold change /veh DDX43 (11728927_at) / RFU KRT8 (11758188_x_at) / Fold change /veh KRT8 (11758188_x_at) / RFU NKD1 (11759106_at) / Fold change /veh NKD1 (11759106_at) / RFU SRD5A1 (11742802_a_at) / Fold change /veh SRD5A1 (11742802_a_at) / RFU TPSAB1 /// TPSB2 (11721975_s_at) / Fold change /veh TPSAB1 /// TPSB2 (11721975_s_at) / RFU GSTM3 (11746129_a_at) / Fold change /veh GSTM3 (11746129_a_at) / RFU IL23R (11737362_x_at) / Fold change /veh IL23R (11737362_x_at) / RFU TMEM51 (11727254_a_at) / Fold change /veh TMEM51 (11727254_a_at) / RFU PIWIL2 (11732686_x_at) / Fold change /veh PIWIL2 (11732686_x_at) / RFU ORM1 (11744905_x_at) / Fold change /veh ORM1 (11744905_x_at) / RFU CCDC152 (11743942_at) / Fold change /veh CCDC152 (11743942_at) / RFU ECM1 (11717891_a_at) / Fold change /veh ECM1 (11717891_a_at) / RFU IL23R (11748794_a_at) / Fold change /veh IL23R (11748794_a_at) / RFU TNFAIP8L3 (11732012_x_at) / Fold change /veh TNFAIP8L3 (11732012_x_at) / RFU MBOAT4 (11741988_at) / Fold change /veh MBOAT4 (11741988_at) / RFU 11764193_at / Fold change /veh 11764193_at / RFU TMEM53 (11763286_at) / Fold change /veh TMEM53 (11763286_at) / RFU MAGEB2 (11727129_at) / Fold change /veh MAGEB2 (11727129_at) / RFU TMEM200A (11744735_a_at) / Fold change /veh TMEM200A (11744735_a_at) / RFU CCDC152 (11751479_a_at) / Fold change /veh CCDC152 (11751479_a_at) / RFU FAM211A (11726209_a_at) / Fold change /veh FAM211A (11726209_a_at) / RFU RGS16 (11746705_a_at) / Fold change /veh RGS16 (11746705_a_at) / RFU VCAN (11755009_s_at) / Fold change /veh VCAN (11755009_s_at) / RFU RHOB (11743442_s_at) / Fold change /veh RHOB (11743442_s_at) / RFU RGS16 (11720943_a_at) / Fold change /veh RGS16 (11720943_a_at) / RFU RGS16 (11720944_at) / Fold change /veh RGS16 (11720944_at) / RFU, VPS4B / Fold change vs veh, VPS4B / RFU, CREB1 / Fold change vs veh, CREB1 / RFU, DNAJC13 / Fold change vs veh, DNAJC13 / RFU, GNAQ / Fold change vs veh, GNAQ / RFU, CDK5R1 / Fold change vs veh, CDK5R1 / RFU, ZRANB3 / Fold change vs veh, ZRANB3 / RFU, CUL4A / Fold change vs veh, CUL4A / RFU, CCNY / Fold change vs veh, CCNY / RFU, UFL1 / Fold change vs veh, UFL1 / RFU, COG3 / Fold change vs veh, COG3 / RFU, DIAPH2 / Fold change vs veh, DIAPH2 / RFU, SKA2 / Fold change vs veh, SKA2 / RFU, AFF3 / Fold change vs veh, AFF3 / RFU, LMF1 / Fold change vs veh, LMF1 / RFU, IPO11 / Fold change vs veh, IPO11 / RFU, DFFB / Fold change vs veh, DFFB / RFU, FOXP1 / Fold change vs veh, FOXP1 / RFU, CARD8 / Fold change vs veh, CARD8 / RFU, STRN3 / Fold change vs veh, STRN3 / RFU, ADK / Fold change vs veh, ADK / RFU, RASSF2 / Fold change vs veh, RASSF2 / RFU, WIPF1 / Fold change vs veh, WIPF1 / RFU, LARP1B / Fold change vs veh, LARP1B / RFU, RASA1 / Fold change vs veh, RASA1 / RFU, RB1 / Fold change vs veh, RB1 / RFU, PPFIA1 / Fold change vs veh, PPFIA1 / RFU, MAT2A / Fold change vs veh, MAT2A / RFU, CCT5 / Fold change vs veh, CCT5 / RFU, WDR92 / Fold change vs veh, WDR92 / RFU, CUX1 / Fold change vs veh, CUX1 / RFU, TTC7A / Fold change vs veh, TTC7A / RFU, TMEM135 / Fold change vs veh, TMEM135 / RFU, DEPTOR / Fold change vs veh, DEPTOR / RFU, CPM / Fold change vs veh, CPM / RFU, DNAJB6 / Fold change vs veh, DNAJB6 / RFU, CACNA2D3 / Fold change vs veh, CACNA2D3 / RFU, DTX4 / Fold change vs veh, DTX4 / RFU, TFCP2 / Fold change vs veh, TFCP2 / RFU, GMCL1 /// GMCL1P1 / Fold change vs veh, GMCL1 /// GMCL1P1 / RFU, AEBP2 / Fold change vs veh, AEBP2 / RFU, SNHG1 /// SNORD22 /// SNORD25 /// SNORD26 /// SNORD27 /// SNORD28 /// SNORD29 /// SNORD31 / Fold change vs veh, SNHG1 /// SNORD22 /// SNORD25 /// SNORD26 /// SNORD27 /// SNORD28 /// SNORD29 /// SNORD31 / Fold change (Aza/veh), C12orf56 (ProbeSet 11735607_a_at) / Fold change (ACY-1035/veh), C12orf56 (ProbeSet 11735607_a_at) / Fold change (Aza/veh), FGFR1OP (ProbeSet 11751329_s_at) / Fold change (ACY-1035/veh), FGFR1OP (ProbeSet 11751329_s_at) / Fold change (Aza/veh), VPS36 (ProbeSet 11739960_a_at) / Fold change (ACY-1035/veh), VPS36 (ProbeSet 11739960_a_at) / RFU SYPL1 (11715823_x_at) / Fold change /veh SYPL1 (11715823_x_at) / RFU IGFBP7 (11715501_s_at) / Fold change /veh IGFBP7 (11715501_s_at) / RFU REEP3 (11722064_at) / Fold change /veh REEP3 (11722064_at) / RFU IGLL1 (11728026_x_at) / Fold change /veh IGLL1 (11728026_x_at): dose or concentration left out as unconfirmed
Details: ProbeSet 11748335_a_at; LIST B

## Nc1ncn([C@@H]2O[C@H](CO)[C@@H](O)[C@H]2O)c(=O)n1 [azacitidine]
  Fold change vs veh, SLMO2: 0.87

Reference: publication PMC5218480 (PLoS ONE, 2017)
